Assay results published in ChEMBL document CHEMBL5537109, “Natural products as potential lead compounds to develop new antiviral drugs over the past decade” (Eur J Med Chem, 2023).
Numbered stars: 1 amine (or outer) side, 2 acyl side, 3 side chain; on linkers, the order of the positions; unused ones are H or OH. Bridge positions count the residues as written; N and C are the ends. Square brackets hold non-standard residues; d marks the D form. Peptide text beside a SMILES is read from it. X2 = CCCCCCCCC[C@@H](CCCC(=O)[*:1])O[*:2]; d(aThr) = C[C@@H](O)[C@@H](N)C(=O)O; aIle = CC[C@@H](C)[C@H](N)C(=O)O

What was measured:
[1] = target: Human immunodeficiency virus type 1 protease (Human immunodeficiency virus 1, UniProt Q72874); experiment: Inhibition of HIV-1 protease
[2] = system: Human immunodeficiency virus 1; experiment: Antiviral activity against HIV-1 infected in human MT4 cells assessed as reduction in viral replication; format: functional; conditions: Human immunodeficiency virus 1, MT4
[3] = Cytotoxicity against human C8166 cells assessed as inhibition of cell growth incubated for 48 hrs by MTT assay; format: toxicity, cell-based
[4] = system: Human immunodeficiency virus 1; experiment: Anti-HIV activity against HIV-1 IIIB infected in human C8166 cells assessed as inhibition of virus-induced cytopathic effect by MTT assay; format: functional, organism-based; conditions: Human immunodeficiency virus 1, IIIB
[5] = Cytotoxicity against MDCK cells assessed as inhibition of cell growth incubated for 48 hrs by MTT assay; format: toxicity, cell-based, Canis lupus familiaris; conditions: dog
Influenza A virus [6] = experiment: Antiviral activity against influenza A virus H1N1(A/PR/8/34) infected in MDCK cells assessed as inhibition of cytopathic effect incubated for 48 hrs by MTT assay; format: functional, organism-based
Influenza A virus [7] = experiment: Antiviral activity against influenza A virus A/Hong Kong/1/68 (HK1, H3N2) infected in dog MDCK cells assessed as cytopathic effect; format: functional, organism-based
Influenza A virus [8] = experiment: Antiviral activity against influenza A virus H5N1 infected in dog MDCK cells assessed as viral growth inhibition; format: functional, organism-based
[9] = Inhibition of Influenza A virus A/California/04/2009 (H1N1) N-terminal his tagged domain of PA endonuclease expressed in Escherichia coli BL21 (DE3) cells
[10] = system: Human immunodeficiency virus 1; experiment: Antiviral activity against wild-type HIV-1 NL4-3 infected in human MT4 cells assessed as inhibition of viral growth by measuring reduction in p24 antigen level incubated for 3 to 7 days by ELISA analysis; format: functional, organism-based; conditions: Human immunodeficiency virus 1, NL4-3, MT4
[11] = system: Human immunodeficiency virus 1; experiment: Antiviral activity against HIV-1 harboring reverse transcriptase infected in human MT4 cells assessed as reduction in virus-induced cytopathic effect; format: functional, organism-based; conditions: Human immunodeficiency virus 1, MT4
RAW264.7 = experiment: Cytotoxicity against mouse RAW264.7 cells assessed as reduction in cell viability incubated for 24 hrs by CCK-8 method; format: functional
[12] = system: Human immunodeficiency virus 1; experiment: Antiviral activity against HIV1 infected in C8166 cells assessed as reduction in viral replication measured after 3 days by ELISA; format: functional, organism-based
[13] = Cytotoxicity against human C8166 cells assessed as reduction in cell growth by MTT assay; format: toxicity, cell-based
[14] = Cytotoxicity against human C8166 cells assessed as inhibition of cell growth by MTT assay; format: toxicity, cell-based
Human alphaherpesvirus 1 [15] = experiment: Antiviral activity against HSV-1 assessed as inhibition of viral growth; format: functional, organism-based
[16] = Cytotoxicity against African green monkey Vero cells assessed as reduction in cell viability measured after 72 hrs by MTT assay; format: toxicity, cell-based; conditions: chlorocebus sabaeus
Human alphaherpesvirus 1 [17] = experiment: Antiviral activity against HSV-1 KOS infected in African green monkey Vero cells assessed as reduction in virus induced cytopathogenicity by plaque reduction assay; format: functional, organism-based; conditions: Human alphaherpesvirus 1, KOS
[18] = Cytotoxicity against African green monkey Vero E6 cells assessed as reduction in cell growth incubated for 24 hrs by WST-8 assay; format: toxicity, cell-based, Vero C1008; conditions: chlorocebus sabaeus
SARS-CoV-2 [19] = experiment: Antiviral activity against SARS-CoV-2 NVDBB-2220 infected in African green monkey Vero cells assessed as reduction in virus-induced cytopathic effect incubated for 5 days by microscopic analysis; format: functional, organism-based; conditions: Severe acute respiratory syndrome coronavirus 2, NVDBB-2220, Vero, 120 h
Huh-7 = experiment: Cytotoxicity against human Huh-7 cells assessed as reduction in cell viability incubated for 72 hrs by MTT assay; format: functional
HEK-293T = experiment: Cytotoxicity against human HEK293T cells assessed as cell growth inhibition measured after 72 hrs by MTT assay; format: functional
[20] = Cytotoxicity against African green monkey Vero cells assessed as reduction in cell viability measured after 72 hrs by MTS assay; format: toxicity, cell-based; conditions: chlorocebus sabaeus
SARS-CoV-2 [21] = experiment: Antiviral activity against SARS-CoV-2 infected in African green monkey Vero cells assessed as reduction in viral replication; format: functional, organism-based; conditions: Severe acute respiratory syndrome coronavirus 2, Vero

C=C(C)[C@]12C[C@@H](COC(C)=O)[C@@]3(OO1)[C@@H]1[C@H]2OCCCCCC[C@@H](C)[C@H]2[C@H](C)[C@H](OC(=O)c4ccccc4)[C@@](O)([C@H](O)[C@@]4(CO)O[C@@H]14)[C@@H]23
IC50 [1]: 4.3 µM
EC90 [2]: 0.0004 µM

COc1cc(OC)c2c(c1OC)C[C@H]1NCCc3cc4c(c-2c31)OCO4
CC50 at 48 h [3]: 43.6 µM
EC50 [4]: 5.8 µM

O=C(O[C@H]1[C@H](Oc2ccc(O)cc2C(=O)O)O[C@H](CO)[C@@H](O)[C@@H]1OC(=O)c1cc(O)c(O)c(O)c1)c1cc(O)c(O)c(O)c1
CC50 at 48 h [5]: > 1000 µM
EC50 (Influenza A virus [6]): 30.7 µM
EC50 (Influenza A virus [7]): 28.2 µM
IC50 (Influenza A virus [8]): 24.6 µM
IC50 [9]: 30.7 µM

O=C1C=C2C[C@H](O[C@H]3C[C@@]45OC(=O)C=C4C[C@@H]3N3CCCC[C@H]35)[C@@H]3C[C@@]2(O1)[C@H]1CCCN31
EC50 [10]: 120 µM

C=C(C)[C@@]1(OC(C)=O)[C@H](OC(C)=O)[C@@H]2[C@H](OC(C)=O)[C@@]3(C)O[C@@]4([C@@H]3O)[C@@H](OC(=O)c3ccccc3)[C@@H](C)C[C@H]4[C@@]2(O)[C@H](C)[C@@H]1OC(=O)c1ccccc1
EC50 [11]: 0.21 µM
CC50 (RAW264.7): > 200 µM

C=C(C)[C@]12C[C@@H](COC(C)=O)[C@@]34OC5(O[C@@H]1[C@@H]3[C@@H]1O[C@]1(CO)[C@@H](O)[C@@]1(O)[C@H]4[C@H]([C@H](C)[C@@H]1OC(=O)c1ccccc1)[C@H](C)C[C@H](OC(=O)c1ccccc1)[C@H](OC(=O)c1ccccc1)CCC[C@H]5O)O2
EC50 [10]: 0.00025 µM

O=C1C=C2[C@H]3C=CC[C@]2(O1)[C@H]1CCCCN31
EC50 [10]: 45 µM

O=C(OC[C@H]1O[C@@H](Oc2ccc(O)cc2C(=O)O)[C@H](O)[C@@H](OC(=O)c2cc(O)c(O)c(O)c2)[C@@H]1O)c1cc(O)c(O)c(O)c1
CC50 at 48 h [5]: 964 µM
EC50 (Influenza A virus [6]): 20.2 µM
EC50 (Influenza A virus [7]): 33.3 µM
IC50 (Influenza A virus [8]): 11.6 µM
IC50 [9]: 29.2 µM

C=C(C)[C@@]1(OC(=O)c2ccccc2)[C@H](OC(C)=O)[C@@H]2[C@H](OC(C)=O)[C@@]3(C)O[C@@]4([C@@H]3O)[C@@H](OC(=O)c3ccccc3)[C@@H](C)C[C@H]4[C@@]2(O)[C@H](C)[C@@H]1OC(C)=O
EC50 [11]: 0.095 µM
CC50 (RAW264.7): > 200 µM

CC(C)CC(=O)O[C@H]1/C=C/C=C\C(=O)O[C@H]2[C@@H](C)C[C@@H]3[C@]2(O)[C@H](O)[C@@]2(CO)O[C@H]2[C@H]2[C@H]4OC5(c6ccccc6)O[C@@H]([C@@H](C)[C@@]23O5)[C@@]4(O)[C@](C)(O)C[C@H]2CC[C@H]1[C@H]2C
EC50 [12]: 0.76 10^-3nmol
CC50 [13]: 0.0222 µM

C=CC(C)(C)c1cc2cc3c(c(CC=C(C)C)c2oc1=O)O[C@H](C(C)(C)O)C3
CC50 [14]: > 200 µM

CCCCCCCCC[C@H]1CCCC(=O)N[C@H]([C@@H](C)O)C(=O)N[C@H](C)C(=O)N2CCC[C@H]2C(=O)N[C@@H](CCC(N)=O)C(=O)N[C@H](Cc2ccc(O)cc2)C(=O)N[C@@H]([C@H](C)CC)C(=O)O1 ([d(aThr)][dA]PQ[dY][aIle]; linker N-C via X2)
EC50 (Human alphaherpesvirus 1 [15]): 14 µM

COc1ccc2c(c1)N=C1c3cc(-c4nccc5c4[nH]c4cc(OC)ccc45)c(C)n3CCC12O (racemic)
CC50 at 72 h [16]: 74.2 µM
EC50 (Human alphaherpesvirus 1 [17]): 2.12 µM

O=C1c2c(O)cc(O)cc2O[C@H](c2cc(O)c(O)c(O)c2)[C@H]1O [AMPELOPSIN]
CC50 at 24 h [18]: > 200 µM

C=C1C(=O)O[C@@]23[C@H]1CC[C@@H](C)[C@@H]2CC[C@@]1(C)O[C@@H]31 [ARTEANNUIN B]
EC50 (SARS-CoV-2 [19]): 10.3 µM

C[C@H]1[C@H](OC(=O)CCC(=O)O)O[C@@H]2O[C@@]3(C)CC[C@H]4[C@H](C)CC[C@@H]1[C@@]24OO3 [ARTESUNATE]
EC50 (SARS-CoV-2 [19]): 13 µM

O=c1cc(-c2ccccc2)oc2cc(O)c(O)c(O)c12 [BAICALEIN]
CC50 at 24 h [18]: > 200 µM

CC[C@H]1CN2CCc3cc(OC)c(OC)cc3[C@@H]2C[C@@H]1C[C@H]1NCCc2cc(O)c(OC)cc21 [CEPHAELINE]
CC50 (Huh-7): 3.03 µM
CC50 (HEK-293T): 2 µM
CC50 at 72 h [20]: 46.3 µM
EC50 (SARS-CoV-2 [21]): 0.0123 µM

CC[C@H]1CN2CCc3cc(OC)c(OC)cc3[C@@H]2C[C@@H]1C[C@H]1NCCc2cc(OC)c(OC)cc21 [EMETINE]
CC50 (Huh-7): 33.4 µM
CC50 (HEK-293T): 37.8 µM
CC50 at 72 h [20]: 2.17 µM
EC50 (SARS-CoV-2 [21]): 7.71 µM

O[C@H]1[C@H]2c3cc4c(cc3CN3CCC(=C[C@@H]1O)[C@H]23)OCO4 [LYCORINE]
CC50 (Huh-7): 0.834 µM
CC50 (HEK-293T): 1.04 µM
CC50 at 72 h [20]: > 1000 µM
EC50 (SARS-CoV-2 [21]): 0.439 µM

O=c1c(O)c(-c2cc(O)c(O)c(O)c2)oc2cc(O)cc(O)c12 [MYRICETIN]
CC50 at 24 h [18]: > 200 µM
